The subject of experiment [1] is LC3B, p62/SQSTM-1 and LAMP2 in GSC M83 and JK83 cells. Put plainly: Immunoblot of autophagy markers (LC3B, p62, LAMP2) in GSCs treated with AZD2014 and NSC. The class given is cell-based. The following applies: NSC in the presence of AZD2014. The protocol: (§1) FIG. 5. A mTORC1/2 inhibitor AZD2014 inhibited cell survival, mTORC1 and mTORC2 activities in GSCs and glioma cells. (A) GSC M83 and JK83 and glioma cells U87 were treated with indicated concentration of AZD2014 for 72 h, then cell viability was evaluated. (B) GSC M83 and JK83 were treated with the indicated concentration of AZD2014 for 1 hr, or with 2 μM AZD2014 for the specified time. Cells were collected for immunoblot analysis. β-actin was used as a loading control; Results are representative of 2 independent experiments. *P<0.05, **P<0.01, paired two-way Student's t-test. Data are representative from three independent experiments with similar results.
FIG. 6. NSC enhanced the cytotoxicity of a mTORC1/2 inhibitor AZD2014 in GSCs. (A) GSC M83 and JK83 were exposed to DMSO control vs AZD2014 vs NSCs vs AZD2014 in combination with NSC for 72 hr. Cells were collected for immunoblot analysis using indicated antibodies. (B) Immunofluorescence analyses for LC3B puncta in GSC M83 and JK83 cells with indicated treatments. (C and D) GSC M83 and JK83 and/or neural progenitor cells (NPC) were treated as indicated in (A), cell viability was tested at 72 h after treatment (C), and cell apoptosis was measured by Annexin V FACS assay 48 h after treatment. Data are representative from three independent experiments with similar results. […]

Experiment [2] concerns GSC JK83 and M83. In words: Cell viability assay, AZD2014 and NSC, 72 h. The class given is cell-based. The protocol:
as §1
(§2) FIG. 6. NSC enhanced the cytotoxicity of a mTORC1/2 inhibitor AZD2014 in GSCs. (A) GSC M83 and JK83 were exposed to DMSO control vs AZD2014 vs NSCs vs AZD2014 in combination with NSC for 72 hr. Cells were collected for immunoblot analysis using indicated antibodies. (B) Immunofluorescence analyses for LC3B puncta in GSC M83 and JK83 cells with indicated treatments. (C and D) GSC M83 and JK83 and/or neural progenitor cells (NPC) were treated as indicated in (A), cell viability was tested at 72 h after treatment (C), and cell apoptosis was measured by Annexin V FACS assay 48 h after treatment. Data are representative from three independent experiments with similar results.
GSCs with single or combined treatments were cultured for 72 hours in 96-well plates at 2,000 cells per well. Cell viabilities were determined using CellTiter-Glow 2.0 Assay (Promega).
(§3) mTOR kinases are crucial regulators of glioma cell growth, proliferation and survival (Akhavan et al., 2010). […] A strong inhibition was achieved by 1 μM with complete block of mTORC1/2 activities at 2 μM (FIG. 5B).
(§4) Since autophagy activation is considered as a cytoprotective factor that contribute to tumor survival when challenged by therapies, it is proposed that block of autophagy activation by NSC would further enhanced the cytotoxicity of dual TORC1/2 inhibitor AZD2014.

The test system of experiment [3] is LC3B puncta in GSC M83 and JK83 cells. Put plainly: LC3B immunofluorescence (puncta, autophagosomes). Format: cell-based. As to conditions: NSC in cells treated with AZD2014. The protocol: as §2
Immunofluorescent staining. GSCs were seeded onto LabTek CC2-treated tissue culture slides (Thermo Fisher) and cultured for 24 hours. Cells were then fixed with 4% formaldehyde (Fisher) for 15 min, and permeabilized with 0.1% Triton X-100, and then blocked with AquaBlock (East Coast Bio, North Berwick, Me.) for 60 minutes. The slides were incubated with indicated primary antibodies according to the manufacturer's instructions. After being washed for three times with PBS-T, cells were incubated with secondary antibody (Alexa 488 and 594, 1:200) and DAPI-containing mounting solution Vectashield (Vector Laboratories). Cells were analyzed on a Nikon inverted microscope Eclipse Ti-U equipped with a digital camera. […]

The test system of experiment [4] is mTORC1 and mTORC2 activity in GSC M83 and JK83 cells. Put plainly: Immunoblot of mTORC1 and mTORC2 activity in GSCs. Format: cell-based. As to the method:
as §1, §2
IB assays were performed as previously described (Huang et al., 2016b). Specific antibodies were used according to the manufacturer's instructions: LC3B (#3868S), pAKT (Ser473; 4060), pAKT(Thr308; 4056), AKT (4691), pS6(S235/236; 2211), S6 (2317), phosphorylated 4E-binding protein 1 (p4EBP1) (Thr37/46; 2855), 4EBP1 (9644), p-mTOR (Ser2448; 2971S), p-mTOR (Ser2481; 2974S), mTOR (2972S), pULK1(Ser317; 14202T), pULK1 (Ser757; 8054T), ULK1(6439), LAMP2 (49067S) were from Cell Signaling Technology. Anti-β-actin (SC-47778) and anti-SQSTM1/p62 (SC-28359) antibodies were from Santa Cruz Biotechnology. An anti-Ki-67 antibody (AB9260) was from EMD Millipore.
as §3, §4
In general terms: A western blot detects proteins with antibodies after separation by electrophoresis.

Experiment [5] concerns GSC JK83 orthotopic xenografts. In words: GSC JK83 orthotopic brain tumor xenograft model (survival, BLI, tissue staining). Format: in vivo, mice. The text has this: FIG. 7. NSC enhance anticancer efficacy of AZD2014 in a patient-derived GSC xenograft model. […] Treatments were started at one week post-implantation. Bioluminescent (BLI) images were taken after the last treatment, and representative images are shown. Scale bar, photons/sec/cm2/steradian. (B) Kaplan-Meier of mice bearing GSC JK83 orthotopic xenografts with indicated treatments. (C) The brains of mice bearing orthotopic xenografts with indicated treatments were collected for immunohistochemical evaluation using indicating antibody. *P<0.05, **p<0.01, […]. Data are representative from three independent experiments with similar results.
Frozen brain tissue sections with GBM xenografts were dried and then fixed in were fixed in 4% paraformaldehyde (PFA) in PBS for 5 minutes. Tissue sections were blocked with AquaBlock (East Coast Bio, North Berwick, Me.) for an hour and then were probed with appropriate primary antibodies 4° C. overnight. Tissue sections were incubated with Alexa 488 or 594 labelled secondary antibodies (1:200) and DAPI-containing mounting solution Vectashield (Vector Laboratories), and representative images were photographed using a Nikon inverted microscope Eclipse Ti-U equipped with a digital camera.
To determine whether the enhancement of AZD2014 therapeutic efficiency by combination with NSC measured in vitro extends to an orthotopic model, GSC JK83 glioma spheres were employed to initiate intracerebral xenografts in mice.

For experiment [6], the system named is U87 cells. In words: Cell viability assay, AZD2014, 72 h. Format: cell-based. The protocol:
as §1
Glioma cells U87 (from ATCC) were cultured in DMEM (Invitrogen) supplemented with 10% FBS and 1% penicillin and streptomycin. Neural progenitor cells were cultured in NPBM Neural Progenitor Basal medium supplemented with hEGF, hFGF, NSF-1 and GA (Lonza, Cat #: cc-3210, cc-4241 and cc-4242). […]
GSCs with single or combined treatments were cultured for 72 hours in 96-well plates at 2,000 cells per well. Cell viabilities were determined using CellTiter-Glow 2.0 Assay (Promega). […]

Experiment [7] has as its system intracranial GBM6FL TMZ res xenografts. Put plainly: Intracranial PDX GBM6FL temozolomide resistant xenograft model. The class given is in vivo, mice. The following applies: compared to vehicle-treated brain xenografts. The text has this: FIG. 8. Combination therapy of autophagy inhibitor NSC185058 (NSC) with IR+TMZ suppressed growth of intracranial GBM6FL temozolomide (TMZ) resistant (res) xenografts. […] Mice were imaged at the indicated day after the implantation, and representative BLI images are shown. (B) Changes in the body weight of the mice in each respective treatment groups. (C, D) Effects of NSC, IR, TMZ and the indicated combinations on GBM6FL TMZ res orthotopic xenografts in mice. The luminescence of xenograft tumors formed by indicated treatment. **p<0.01 compared to vehicle controls. Colored scale bars represent photons/s/cm2/steradian. (E, F) Kaplan-Meier (E) and log-rank p value analyses (F) of mice bearing GBM6FL TMZ res orthotopic xenografts with indicated treatments. First and second IR+TMZ+NSC tri-treatments were started at day 7 and day 35 post-implantation, respectively.
GBM6FL TMZ res orthotopic xenograft model was recently established by Dr. Charles David James at Northwestern University as intracranial GBM xenografts after three runs of TMZ treatments and subsequent passages in the flanks of mice.

This note sets out measurements from patent US11793816B2, “Methods for enhancing cytotoxic cancer therapy through inhibition of ATG4B” (Northwestern University, priority 2019, dated 2023).

“Also recorded” adds a separate entry of the source.

As to `CNC(=O)c1cccc(-c2ccc3c(N4CCOC[C@@H]4C)nc(N4CCOC[C@@H]4C)nc3n2)c1` [AZD2014, vistusertib], the “autophagy markers (LC3B conversion, p62 and LAMP2 degradation)” value in experiment [1] is “increased LC3-II conversion (LC3B-II/I ratio) and p62/SQSTM-1 degradation; also recorded: induced autophagic influx by inducing LC3B lipidation and degradation of p62 and LAMP2”. Further, in experiment [2] (72 h, combination compared with monotherapy, AZD2014 alone), the cell viability entry is on record as “displayed inhibitor effects on GBM cell viability”. In addition, the “concentration at which cell viability was significantly decreased” value in experiment [2] (GSC JK83 and M83, 72 h) worked out at 1 µM; in experiment [6], 0.1 µM. Moreover, the “inhibition efficiency on GSCs compared with glioma cells” value in experiment [2] (same concentration of AZD2014, GSCs vs U87) was “significantly lower than glioma cells”. Further, in experiment [3], the “autophagosomes number (LC3 B immunofluorescence)” value is recorded as “increase of autophagosomes number”. Also, the “mTOR signaling and ULK1 phosphorylation” value in experiment [4] (GSC83 and JK83 cells, 72 hr) was “inhibited mTOR induced p-52448/81-mTOR, p-S473-Akt, p-S6, p-S757-ULK1”. Besides, the “concentration giving complete block of mTORC1/2 activities” value in experiment [4] (GSC M83 and JK83) is 2 µM. For the same molecule, the “concentration giving strong inhibition of mTORC1/2 activities” value in experiment [4] (GSC M83 and JK83) came out at 1 µM. Further, the “time by which inhibition of mTORC1 and mTORC2 was detectable” value in experiment [4] (GSC M83 and JK83, 2 μM AZD2014) was at most 2 h. In experiment [4] (GSC M83 and JK83, 1 hr), the “inhibition of p-S6, p-4EBP1, p-AKT (Ser473)” value is “dose-dependently inhibited p-S6, p-4EBP1, and p-AKT (Ser473)”. In addition, the “levels of p-4EBP1 and p-AKT in tumor tissues” value in experiment [5] (AZD2014 alone or in combination with NSC vs control) is “significantly reduced in the levels of p-4EBP1 and p-AKT”. The mouse survival result in experiment [5] (NSC (100 mg/kg), AZD2014 (50 mg/kg), alone or combined, vs control) is recorded as “modest but significant effects on mouse survival”.
On to `Cn1nnc2c(C(N)=O)ncn2c1=O` [TMZ, temozolomide], for which the “response of xenografts to TMZ treatments” value in experiment [7] was “no response”.
